Format in all cases: cell-based, human
The test system of one test is MCF-7 cells. Nature of the test: MTT cytotoxicity, breast cancer cells MCF-7. The following applies: MTT. From the text:
(§1) The cytotoxicity, general tyrosine kinase inhibitory effects and cell death (apoptosis/necrosis) assays of 1-benzyl-3-(1H-indol-3-ylmethylidene)-1,3-dihydro-2H-indol-2-one derivatives (Formula 5) of the present invention are studied by the following methods. […] HUVEC (human umbilical vein endothelial cell), MCF-10F (human breast epithelial cell) and Beas2b (human lung bronchial epithelial cell) cell lines have been used as healthy control cells in MTT experiments.
(§2) Beas2b (human lung bronchiole epithelial cell) and HEK293 (renal tubule epithelium) cells used as normal cell lines were cultured in RPMI medium, and HUVEC (human umbilical cord endothelial cells) and MCF-10F (human breast epithelial cell) cells are cultured in DMEM medium containing 100 µg/ml penicillin/streptomycin. The cells, which covered 70% of the culture flask, are washed with phosphate buffer and then removed from the surface of the flask by application of trypsin-ethylenediamine tetraacetic acid (Trypsin-EDTA; 0.25%) solution, passaged, counted and seeded on appropriate plates before each experiment. Cells are treated with a total of 45 2-indolinone compounds (5) at concentrations of 0.1, 1, 5 and 10 μM. Stock compounds are prepared in 1 ml dimethylsulfoxide (DMSO) and 4 different dilutions were prepared with medium and performed to the cells. Control group cells are treated with DMSO at a similar concentration to the experimental groups.
(§3) MTT (3-(4,5-dimethylthiazol-2-yl)-2,5-diphenyl-2H-tetrazolium bromide) colorimetric assay provides quantitation of viable cells with ongoing mitochondrial activity in culture medium. According to the standard procedure in cell culture conditions, cells are maintained in RPMI-1640 and DMEM culture media containing 10% FBS and 1% penicillin/streptomycin. The trypan blue test is used for cell counts.
(§4) The effects of 45 2-indolinone compounds (5) on cell viability in all cancer cell lines are investigated by MTT assay. Cells are seeded in a 96-well flat bottom plate with 5000 cells in each well and 2-indolinone compounds (5) at concentrations of 0.1, 1, 5 and 10 μM are performed to the cells the next day. After 48 and/or 72 hours following treatment with 2-indolinone compounds, 50 μl of the supernatant is slowly discarded (as it was acid medium) and MTT at a concentration of 5 mg/ml is added to each well in a volume of 10 μl. After incubation for 4 hours, the formazan crystals formed in the wells are dissolved by adding 100 μl DMSO and the optical density is read at 570 nm test wavelength and 630 nm reference wavelength. Cell viability is expressed as % cell viability by comparing the absorbance of control and test wells. IC50 value is calculated from the dose-response curves prepared for each compound. In addition, the possible DMSO effect is eliminated by preparing negative control wells compatible with the amount of DMSO contained in the compounds. To understand the reaction of the compounds with MTT, cell-free (MTT+compounds) negative controls are prepared at the concentrations used (Mosmann, 1983). […] The absorbance values obtained are compared to the control and statistically evaluated by unpaired t-test using “Graphpad Prism 5.04” software. “P<0.05” is accepted as significant. When evaluating cytotoxic effects, the present inventors aim for the inventive compounds to be effective in cancer cells and ineffective in healthy cells. The inventive compounds have also been compared with sunitinib, one of the reference chemotherapy drugs currently used in treatment.
(§5) Among the compounds of the present invention, those that killed cancer cells by at least 50% (p<0.05) are selected and tested whether a 10-fold concentration of the M concentration at the IC50 value is toxic to normal healthy cells.

The test system of the next test is MDA-MB-231 cells. Nature of the test: MTT cytotoxicity, breast cancer cells MDA-MB-231. The following applies: read-out: IC50, MDA-MB-231 (breast); MTT, no * mark (incubation time not given).
Source text: as §1, §2, §3, §4, §5

In the next test the test system is A549 cells. Nature of the test: MTT cytotoxicity, lung cancer cells A549. The following applies: no * mark (incubation time not specified).
Source text: as §1, §2, §3, §4, §5

The next test relates to CAKI-1 cells. The experiment in a line: MTT cytotoxicity, kidney cancer cells CAKI-1.
Source text: as §1, §2, §3, §4, §5

The subject of a further test is A498 cells. The experiment in a line: MTT cytotoxicity, kidney cancer cells A498. The following applies: MTT.
Source text: as §1, §2, §3, §4, §5

The test system of a further test is MCF-10F/Beas2b cells. The experiment in a line: MTT cytotoxicity, healthy cells MCF-10F/Beas2b. The following applies: MTT.
Source text: as §1, §2, §3, §4, §5

A further test deals with HUVEC cells. Nature of the test: MTT cytotoxicity, healthy cells HUVEC. The following applies: MTT.
Source text: as §1, §2, §3, §4, §5

A further test has as its system HT-29 cells. The experiment in a line: MTT cytotoxicity, colon cancer cells HT-29. The following applies: MTT, no * mark (incubation time not specified).
Source text: as §1, §2, §3, §4

In a further test the test system is HCT-116 cells. Nature of the test: MTT cytotoxicity, colon cancer cells HCT-116. The following applies: no * mark (incubation time not specified).
Source text: as §1, §2, §3, §4

The subject of the next test is MIAPaCa-2 cells. Nature of the test: MTT cytotoxicity, pancreas cancer cells MIAPaCa-2. The following applies: MTT.
Source text: as §1, §2, §3, §4

The mark [1] stands for this setting: *: effective 72 hours after incubation.
[2] abbreviates: no * mark (incubation time not specified).

The values below come from patent publication US20260335282A1, “NOVEL 3-ARYLIDENE-2-INDOLINONE DERIVATIVES FOR THERAPEUTIC USE” (ISTANBUL UNIVERSITESI REKTORLUGU, priority 2022, published 2026).

A value given as a limit tells only on which side of the number the result lay.

The IC50 is the concentration at which inhibition is half-maximal.

As to `Cc1ccc(CN2C(=O)/C(=C\c3c[nH]c4ccccc34)c3cc(F)ccc32)cc1` [Y25], the IC50 is 4.83 µM with MCF-7 cells (setting [1]); 3.4 µM in the test on MDA-MB-231 cells; 3.31 µM with A549 cells; 7 µM in the test on CAKI-1 cells (setting [1]); 3.15 µM with A498 cells (setting [2]); 2.72 µM in the test on MCF-10F/Beas2b cells (setting [2]). Also, the concentration for half-maximal inhibition (IC50) in the test on HUVEC cells (setting [2]) is 0.13 µM; in the test with HT-29 cells, > 10 µM; in the test on HCT-116 cells it was 1.46 µM; in the test with MIAPaCa-2 cells (setting [2]), 1.14 µM.

On to `Cc1cccc(CN2C(=O)/C(=C\c3c[nH]c4ccccc34)c3cc(C)ccc32)c1` [48C], for which the IC50 was 3.96 µM in the test with MCF-7 cells (setting [1]); > 10 µM in the test with MDA-MB-231 cells; 3 µM with A549 cells; 3.46 µM in the test on CAKI-1 cells (setting [1]); 0.73 µM with A498 cells (setting [1]); 3.35 µM in the test on MCF-10F/Beas2b cells (setting [1]). In addition, the IC50 in the test on MCF-10F/Beas2b cells (setting [2]) was determined as 3.35 µM; with HUVEC cells (setting [2]), 1.07 µM; in the test on HT-29 cells, 1.46 µM; with HCT-116 cells, 0.6 µM; in the test with MIAPaCa-2 cells (setting [2]) it was 2.02 µM.

For `O=C1/C(=C\c2c[nH]c3ccccc23)c2cc(Cl)ccc2N1Cc1ccc(Cl)cc1` [19C], the IC50 was 3.16 µM in the test with MCF-7 cells (setting [2]); > 10 µM in the test on MDA-MB-231 cells; 5.55 µM in the test with A549 cells; > 10 µM with CAKI-1 cells (setting [2]); 0.51 µM in the test with A498 cells (setting [2]); 1.87 µM in the test on MCF-10F/Beas2b cells (setting [2]). The 50% inhibitory concentration (IC50) in the test with HUVEC cells (setting [2]) is 1.87 µM; with HT-29 cells it was > 10 µM; in the test on HCT-116 cells, > 10 µM; in the test with MIAPaCa-2 cells (setting [2]), > 10 µM.

`O=C1/C(=C\c2c[nH]c3ccccc23)c2cccc(Cl)c2N1Cc1cccc(F)c1` [23C]: the IC50 in the test with MCF-7 cells (setting [2]) is 3.07 µM; in the test with MDA-MB-231 cells it was > 10 µM; with A549 cells it was > 10 µM; with CAKI-1 cells (setting [2]), 4.88 µM; with A498 cells (setting [2]), 8.33 µM; in the test with HUVEC cells (setting [2]), > 10 µM. The half-inhibitory concentration (IC50) with HT-29 cells, in the test on HCT-116 cells and in the test with MIAPaCa-2 cells (setting [1]) was > 10 µM throughout.

Regarding `Cc1ccc2c(c1)/C(=C/c1cn(C)c3ccccc13)C(=O)N2Cc1ccccc1` [Y13], the IC50 with MCF-7 cells (setting [2]) was > 10 µM; in the test on MDA-MB-231 cells, > 10 µM; with A549 cells, > 10 µM; in the test with CAKI-1 cells (setting [2]) it was > 10 µM; with A498 cells (setting [2]) it was > 10 µM; in the test on HUVEC cells (setting [2]), 3.37 µM. For the same compound, the IC50 in the test on HT-29 cells was 3.37 µM; in the test on HCT-116 cells, 4.58 µM; with MIAPaCa-2 cells (setting [2]) it was 2.2 µM.

In the case of `O=C1/C(=C\c2c[nH]c3ccccc23)c2cc(F)ccc2N1Cc1cccc(Cl)c1` [11C], the half-inhibitory concentration (IC50) in the test on MCF-7 cells (setting [2]) was > 10 µM; with MDA-MB-231 cells, 7.25 µM; in the test with A549 cells, > 10 µM; with CAKI-1 cells (setting [2]) it was 9.81 µM; in the test with A498 cells (setting [2]), > 10 µM; in the test with HUVEC cells (setting [2]), > 10 µM. Also, the IC50 with HT-29 cells, in the test with HCT-116 cells and in the test on MIAPaCa-2 cells (setting [1]) was > 10 µM throughout.

As for `O=C1/C(=C\c2c[nH]c3ccccc23)c2cccc(Cl)c2N1Cc1ccc(Cl)cc1` [26C], the IC50 is 3.55 µM in the test on MCF-7 cells (setting [2]); > 10 µM in the test on MDA-MB-231 cells; > 10 µM in the test with A549 cells; 4.5 µM in the test with CAKI-1 cells (setting [2]); 6.92 µM in the test with A498 cells (setting [2]); > 10 µM with HUVEC cells (setting [2]). Also, the IC50 in the test on HT-29 cells, with HCT-116 cells and with MIAPaCa-2 cells (setting [1]) was > 10 µM each time.

As to `O=C1/C(=C\c2c[nH]c3ccccc23)c2cccc(F)c2N1Cc1ccccc1` [29C], the IC50 in the test on MCF-7 cells (setting [2]) is 4.35 µM; in the test on MDA-MB-231 cells it was > 10 µM; in the test with A549 cells it was > 10 µM; in the test with CAKI-1 cells (setting [2]), 4.12 µM; with A498 cells (setting [2]), > 10 µM; with HUVEC cells (setting [1]) it was 0.95 µM. For the same compound, the IC50 with HT-29 cells, in the test with HCT-116 cells and in the test with MIAPaCa-2 cells (setting [2]) was > 10 µM throughout.
